Source: patent US7737142B2, “(Thio) carbamoyl-cyclohexane derivatives as D3/D2 receptor antagonists” (Richter Gedeon Vegyeszeti Gyar Rt., priority 2003, dated 2010)

Columns and labels:
[1] = biological target: T1, rat recombinant D3 receptors (expressed in Sf9 cells) (Rattus norvegicus, UniProt P19020); experiment: D3 receptor binding ([3H]-spiperone); details: [3H]-spiperone 0.85 nM, read-out: D3 IC-50
T1 construct: purchased Packard BioScience, BioSignal Packard Inc. 6110139; host or cells: Sf9 cells
T1 sequence (P19020 whole entry): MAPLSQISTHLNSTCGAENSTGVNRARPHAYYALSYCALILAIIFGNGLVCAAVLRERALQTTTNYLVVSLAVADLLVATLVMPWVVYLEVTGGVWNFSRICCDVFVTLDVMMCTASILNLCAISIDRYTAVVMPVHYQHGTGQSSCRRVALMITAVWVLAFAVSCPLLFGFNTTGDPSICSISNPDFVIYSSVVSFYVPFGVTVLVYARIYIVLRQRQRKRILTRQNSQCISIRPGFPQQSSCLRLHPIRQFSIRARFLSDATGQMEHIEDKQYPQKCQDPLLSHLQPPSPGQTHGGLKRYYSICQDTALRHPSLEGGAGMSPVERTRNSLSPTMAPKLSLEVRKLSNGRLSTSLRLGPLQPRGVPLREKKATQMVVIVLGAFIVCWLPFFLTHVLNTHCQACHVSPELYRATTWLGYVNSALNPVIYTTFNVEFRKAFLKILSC

[2] = biological target: Alpha-1 receptor (rat brain cortical membrane preparation); experiment: Alpha-1 receptor binding ([3H]-prasosin); details: rat brain cortical membranes, [3H]-prasosin 0.5 nM; read-out: Alfa-1 IC-50
Procedure: The non-specific binding was determined in the presence of 10 μM phentolamine.

[3] = biological target: T2, D2 receptor (rat brain striatal membrane preparation) (Rattus norvegicus, UniProt P61169); experiment: D2 receptor binding ([3H]-spiperone); details: rat brain striatal membranes, [3H]-spiperone 0.6 nM; read-out: D2 IC-50
T2 construct: on rat brain striatal membrane preparation; from tissue; host or cells: rat brain striatum membranes
T2 sequence (P61169 whole entry): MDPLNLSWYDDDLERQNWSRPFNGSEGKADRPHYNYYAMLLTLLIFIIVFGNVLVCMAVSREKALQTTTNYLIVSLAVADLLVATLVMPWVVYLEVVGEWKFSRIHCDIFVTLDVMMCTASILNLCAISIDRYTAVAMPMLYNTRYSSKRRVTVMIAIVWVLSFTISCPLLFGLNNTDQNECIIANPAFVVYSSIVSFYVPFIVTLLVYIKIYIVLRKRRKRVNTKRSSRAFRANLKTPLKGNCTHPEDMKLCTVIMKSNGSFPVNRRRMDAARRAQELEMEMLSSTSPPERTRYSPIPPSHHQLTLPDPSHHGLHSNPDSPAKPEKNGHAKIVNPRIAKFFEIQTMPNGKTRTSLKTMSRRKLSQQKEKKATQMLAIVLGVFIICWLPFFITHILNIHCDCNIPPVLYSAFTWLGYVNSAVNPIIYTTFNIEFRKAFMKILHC
Procedure: The non-specific binding was determined in the presence of 1 μM (+)-butaclamol.

| Structure (SMILES) | IC50 [1] [nM] | IC50 [2] [nM] | melting point [°C] | IC50 [3] [nM] |
| --- | --- | --- | --- | --- |
| COC(=O)C(NC(=O)N[C@H]1CC[C@H](CCN2CCN(c3cccc(Cl)c3Cl)CC2)CC1)C(C)C (relative stereo) [Compound 29, trans-2-[3-(4-{2-[4-(2,3-Dichloro-phenyl)-piperazin-1-yl]-ethyl}-cyclohexyl)-ureido]-3-methyl-butyric acid methyl ester] | 1 to 10 | > 200 |  |  |
| CCNC(=O)N[C@H]1CC[C@H](CCN2CCN(c3cccc(Cl)c3Cl)CC2)CC1 [Compound 2, Trans-1-{4-[2-[4-(2,3-dichlorophenyl)-piperazin-1-yl]-ethyl]-cyclohexyl}-3-ethyl-urea] | < 1 | > 200 | 235 to 238 |  |
| CCCNC(=O)N[C@H]1CC[C@H](CCN2CCN(c3cccc(Cl)c3Cl)CC2)CC1 [Compound 4, trans-1-{4-[2-[4-(2,3-dichlorophenyl)-piperazin-1-yl]-ethyl]-cyclohexyl}-3-propyl-urea] | < 1 | > 200 | 218 to 220 | 10 to 50 |
| CC(C)NC(=O)N[C@H]1CC[C@H](CCN2CCN(c3cccc(Cl)c3Cl)CC2)CC1 [Compound 5, trans-1-{4-[2-[4-(2,3-dichlorophenyl)-piperazin-1-yl]-ethyl]-cyclohexyl}-3-isopropyl-urea] | < 1 | > 200 | 227 to 230 | 10 to 50 |
| CCNC(=O)N[C@H]1CC[C@H](CCN2CCCN(c3cccc(Cl)c3Cl)CC2)CC1 [Compound 6, trans-1-{4-[2-[4-(2,3-dichlorophenyl)-hexahydro[1,4]diazepin-1-yl]-ethyl]-cyclohexyl}-3-ethyl-urea] | < 1 | > 200 | 115 to 118 | 10 to 50 |
| CN(C)C(=O)N[C@H]1CC[C@H](CCN2CCCN(c3cccc(Cl)c3Cl)CC2)CC1 [Compound 7, trans-1-{4-[2-[4-(2,3-dichlorophenyl)-hexahydro[1,4]diazepin-1-yl]-ethyl]-cyclohexyl}-3,3-dimethyl-urea] | 1 to 10 | > 200 | 168 to 172 | 10 to 50 |
| O=C(N[C@H]1CC[C@H](CCN2CCN(c3cccc(Cl)c3Cl)CC2)CC1)N1CCCC1 [Compound 8, trans-N-{4-[2-[4-(2,3-dichlorophenyl)-piperazin-1-yl]-ethyl]-cyclohexyl}-pyrrolidine-1-carboxamide] | < 1 | > 200 | 201 to 203 | 10 to 50 |
| O=C(N[C@H]1CC[C@H](CCN2CCCN(c3cccc(Cl)c3Cl)CC2)CC1)N1CCCC1 [Compound 9, trans-N-{4-[2-[4-(2,3-dichlorophenyl)-hexahydro[1,4]diazepin-1-yl]-ethyl]-cyclohexyl}-pyrrolidine-1-carboxamide] | < 1 | > 200 |  | 1 to 10 |
| CCN(CC)C(=O)N[C@H]1CC[C@H](CCN2CCN(c3cccc(Cl)c3Cl)CC2)CC1 [Compound 10, trans-1-{4-[2-[4-(2,3-dichlorophenyl)-piperazin-1-yl]-ethyl]-cyclohexyl}-3,3-diethyl-urea] |  |  | 171 to 173 |  |
| CCN(C)C(=O)N[C@H]1CC[C@H](CCN2CCN(c3cccc(Cl)c3Cl)CC2)CC1 [Compound 11, trans-1-{4-[2-[4-(2,3-dichlorophenyl)-piperazin-1-yl]-ethyl]-cyclohexyl}-3-ethyl-3-methyl-urea] |  |  | 195 to 198 |  |
| O=C(N[C@H]1CC[C@H](CCN2CCN(c3cccc(Cl)c3Cl)CC2)CC1)N1CCNCC1 [Compound 14, trans-N-{4-[2-[4-(2,3-dichlorophenyl)-piperazin-1-yl]-ethyl]-cyclohexyl}-piperazine-1-carboxamide] |  |  | 293 to 296 |  |
| CN1CCN(C(=O)N[C@H]2CC[C@H](CCN3CCN(c4cccc(Cl)c4Cl)CC3)CC2)CC1 [Compound 15, trans-N-{4-[2-[4-(2,3-dichlorophenyl)-piperazin-1-yl]-ethyl]-cyclohexyl}-4-methyl-piperazine-1-carboxamide] |  |  | 166 to 168 |  |
| O=C(N[C@H]1CC[C@H](CCN2CCN(c3cccc(Cl)c3Cl)CC2)CC1)N1CCOCC1 [Compound 16, trans-N-{4-[2-[4-(2,3-dichlorophenyl)-piperazin-1-yl]-ethyl]-cyclohexyl}-morpholine-4-carboxamide] | < 1 | > 200 | 201 to 203 |  |
| O=C(N[C@H]1CC[C@H](CCN2CCN(c3cccc(Cl)c3Cl)CC2)CC1)N1CCCCC1 [Compound 17, trans-N-{4-[2-[4-(2,3-dichlorophenyl)-piperazin-1-yl]-ethyl]-cyclohexyl}-piperidine-1-carboxamide] |  |  | 188 to 190 |  |
| O=C(N[C@H]1CC[C@H](CCN2CCN(c3cccc(Cl)c3Cl)CC2)CC1)N1CCC(O)CC1 [Compound 18, trans-N-{4-[2-[4-(2,3-dichlorophenyl)-piperazin-1-yl]-ethyl]-cyclohexyl}-4-hydroxy-piperidine-1-carboxamide] |  |  | 178 to 180 |  |
| C=CCNC(=O)N[C@H]1CC[C@H](CCN2CCN(c3cccc(Cl)c3Cl)CC2)CC1 [Compound 21, trans-1-Allyl-3-(4-{2-[4-(2,3-dichloro-phenyl)-piperazin-1-yl]-ethyl}-cyclohexyl)-urea] | < 1 | > 200 |  | 10 to 50 |
| CCCCNC(=O)N[C@H]1CC[C@H](CCN2CCN(c3cccc(Cl)c3Cl)CC2)CC1 [Compound 24, trans-1-Butyl-3-(4-{2-[4-(2,3-dichloro-phenyl)-piperazin-1-yl]-ethyl}-cyclohexyl)-urea] | < 1 | > 200 |  | 10 to 50 |
| N#Cc1cccc(NC(=O)N[C@H]2CC[C@H](CCN3CCN(c4cccc(Cl)c4Cl)CC3)CC2)c1 [Compound 31, trans-1-(3-Cyano-phenyl)-3-(4-{2-[4-(2,3-dichloro-phenyl)-piperazin-1-yl]-ethyl}-cyclohexyl)-urea] | < 1 | > 200 |  |  |
| COc1cc(NC(=O)N[C@H]2CC[C@H](CCN3CCN(c4cccc(Cl)c4Cl)CC3)CC2)cc(OC)c1OC [Compound 32, trans-1-(4-{2-[4-(2,3-Dichloro-phenyl)-piperazin-1-yl]-ethyl}cyclohexyl)-3-(3,4,5-trimethoxy-phenyl)-urea] | < 1 | > 200 |  | 10 to 50 |
| O=C(NC1CCCCC1)N[C@H]1CC[C@H](CCN2CCN(c3cccc(Cl)c3Cl)CC2)CC1 [Compound 33, trans-1-Cyclohexyl-3-(4-{2-[4-(2,3-dichloro-phenyl)-piperazin-1-yl]-ethyl}-cyclohexyl)-urea] | < 1 | > 200 |  |  |
| CC(C)(C)NC(=S)N[C@H]1CC[C@H](CCN2CCN(c3cccc(Cl)c3Cl)CC2)CC1 [Compound 38, trans-1-tert-Butyl-3-(4-{2-[4-(2,3-dichloro-phenyl)-piperazin-1-yl]-ethyl}-cyclohexyl)-thiourea] | 1 to 10 | > 200 |  | 10 to 50 |
| CCCNC(=S)N[C@H]1CC[C@H](CCN2CCN(c3cccc(Cl)c3Cl)CC2)CC1 [Compound 42, trans-1-(4-{2-[4-(2,3-Dichloro-phenyl)-piperazin-1-yl]-ethyl}-cyclohexyl)-3-propyl-thiourea] | < 1 | > 200 |  | 10 to 50 |
| CCOC(=O)CNC(=S)N[C@H]1CC[C@H](CCN2CCN(c3cccc(Cl)c3Cl)CC2)CC1 [Compound 44, trans-[3-(4-{2-[4-(2,3-Dichloro-phenyl)-piperazin-1-yl]-ethyl}-cyclohexyl)-thioureido]-acetic acid ethyl ester] | < 1 | > 200 |  | 10 to 50 |
| CCNC(=S)N[C@H]1CC[C@H](CCN2CCN(c3cccc(Cl)c3Cl)CC2)CC1 [Compound 45, trans-1-(4-{2-[4-(2,3-Dichloro-phenyl)-piperazin-1-yl]-ethyl}-cyclohexyl)-3-ethyl-thiourea] | < 1 | > 200 |  | 10 to 50 |
| CC(C)(C)NC(=O)N[C@H]1CC[C@H](CCN2CCN(c3cccc(Cl)c3Cl)CC2)CC1 [Compound 47, trans-1-tert-Butyl-3-(4-{2-[4-(2,3-dichloro-phenyl)-piperazin-1-yl]-ethyl}-cyclohexyl)-urea] | < 1 | > 200 |  |  |
| O=C(Nc1ccccc1)N[C@H]1CC[C@H](CCN2CCN(c3cccc(Cl)c3Cl)CC2)CC1 [Compound 48, trans-1-(4-{2-[4-(2,3-Dichloro-phenyl)-piperazin-1-yl]-ethyl}-cyclohexyl)-3-phenyl-urea] | < 1 | > 200 |  | 10 to 50 |
| O=C(NCc1ccccc1)N[C@H]1CC[C@H](CCN2CCN(c3cccc(Cl)c3Cl)CC2)CC1 [Compound 49, trans-1-Benzyl-3-(4-{2-[4-(2,3-dichloro-phenyl)-piperazin-1-yl]-ethyl}-cyclohexyl)-urea] | < 1 | > 200 |  | 50 to 200 |
| COc1ccc(NC(=O)N[C@H]2CC[C@H](CCN3CCN(c4cccc(Cl)c4Cl)CC3)CC2)cc1 [Compound 50, trans-1-(4-{2-[4-(2,3-Dichloro-phenyl)-piperazin-1-yl]-ethyl}-cyclohexyl)-3-(4-methoxy-phenyl)-urea] | < 1 | > 200 |  | 50 to 200 |
| CCOC(=O)CNC(=O)N[C@H]1CC[C@H](CCN2CCN(c3cccc(Cl)c3Cl)CC2)CC1 [Compound 51, trans-[3-(4-{2-[4-(2,3-Dichloro-phenyl)-piperazin-1-yl]-ethyl}-cyclohexyl)-ureido]-acetic acid ethyl ester] | < 1 | > 200 |  | 10 to 50 |
